Columns and labels:
Pyricularia oryzae = assay: whole plant or invertebrate; format: in vivo; details: 100 is total disease control, 0 is no disease control; for Rice Blast (RB) protectant fungicide data, percent control: 300 g/ha, greenhouse; for pest or weed control at 300 g/ha: Pyricularia oryzae, topical, 144 h, read-out: Rice Blast (RB) protectant fungicide data, percent control, protectant, 300 g/ha, greenhouse
Sphaerotheca fuliginea = assay: Cucumber Powdery Mildew (CPM) protectant test in the greenhouse; format: in vivo; details: 100 is total disease control, 0 is no disease control; for Cucumber Powdery Mildew (CPM) protectant fungicide data, percent control: 300 g/ha; for pest or weed control at 300 g/ha: Podosphaera fuliginea, topical, 168 h, read-out: Cucumber Powdery Mildew (CPM) protectant fungicide data, percent control
Outline: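 Compounds in acetone-methanol-water (1:1:2) sprayed onto cucumber cv. "Bush Champion" (cotyledons plus one true leaf, 13 days old), dried 4 h. Inoculated 1 day later with 2×10^5 spores/ml; disease control (%) rated after 7 days in greenhouse.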

Two-Spotted Spider Mite = assay: Protocol 1 Two-Spotted Spider Mite (MTA) foliar spray test; format: in vivo, Tetranychus urticae; details: Protocol 1, DOSE 150; percentage of mites killed 1-day post-treatment
Description: A test solution containing 1250 parts per million (ppm) was prepared by dissolving the test compound in […] of a second solvent (acetone: water, 1:1) to give an acetone:water: methanol system of 50: 40:10.
The enclosed spraying chamber consisted of a single spray nozzle mounted on a boom moving at a fixed speed and distance over stationary targets. The vertical distance from the nozzle tip to the targets was adjusted to give rates varying from 150 g/ha to 600 g/ha
A pad of moistened cotton was placed in a Petri dish. A 1-inch square section cut from a fully expanded primary lima bean (Phaseolus limensis) leaf was positioned bottom side up on the moist cotton. The leaf square was infested with approximately 50 adult female mites. The dishes were sprayed with the test solutions and held at 27° C. for mortality determination 1-day post-treatment. The percentage of mites killed were rated from 100% (all dead) to 0% (all alive).

SMILES: CCCCCCCCCCn1nc(-c2ccc(Cl)cc2)ncc1=O [Compound 260]
- Rice Blast (RB) protectant fungicide data, percent control (Pyricularia oryzae): 75 percent control
- Cucumber Powdery Mildew (CPM) protectant fungicide data, percent control (Sphaerotheca fuliginea): 0 percent control
- MTA (Two-Spotted Spider Mite): 0%

SMILES: O=C1CNC(c2cc(Cl)ccc2Cl)=NN1CC(F)(F)F [Compound 70]
- Rice Blast (RB) protectant fungicide data, percent control (Pyricularia oryzae): 80 percent control
- Cucumber Powdery Mildew (CPM) protectant fungicide data, percent control (Sphaerotheca fuliginea): 80 percent control
- MTA (Two-Spotted Spider Mite): 71%

SMILES: CCN1N=C(c2ccc(Cl)c(Cl)c2)NCC1=O [Compound 100]
- Rice Blast (RB) protectant fungicide data, percent control (Pyricularia oryzae): 99 percent control
- Cucumber Powdery Mildew (CPM) protectant fungicide data, percent control (Sphaerotheca fuliginea): 80 percent control
- MTA (Two-Spotted Spider Mite): 25%

SMILES: C[Si](C)(C)Cn1nc(-c2ccc(Cl)cc2)ncc1=O [Compound 265]
- Rice Blast (RB) protectant fungicide data, percent control (Pyricularia oryzae): 85 percent control
- Cucumber Powdery Mildew (CPM) protectant fungicide data, percent control (Sphaerotheca fuliginea): 90 percent control
- MTA (Two-Spotted Spider Mite): 0%

SMILES: C#CCOC(=O)N1CC(=O)N(CCCC)N=C1c1cc(Cl)cc(Cl)c1 [Compound 133]
- Rice Blast (RB) protectant fungicide data, percent control (Pyricularia oryzae): 80 percent control
- Cucumber Powdery Mildew (CPM) protectant fungicide data, percent control (Sphaerotheca fuliginea): 0 percent control
- MTA (Two-Spotted Spider Mite): 0%

SMILES: CCCCN1N=C(c2cccc(Cl)c2)NCC1=O [Compound 110]
- Rice Blast (RB) protectant fungicide data, percent control (Pyricularia oryzae): 99 percent control
- Cucumber Powdery Mildew (CPM) protectant fungicide data, percent control (Sphaerotheca fuliginea): 90 percent control
- MTA (Two-Spotted Spider Mite): 100%

SMILES: CCCCN1N=C(c2ccc(Cl)c(Cl)c2)NCC1=O [Compound 101]
- Rice Blast (RB) protectant fungicide data, percent control (Pyricularia oryzae): 100 percent control
- Cucumber Powdery Mildew (CPM) protectant fungicide data, percent control (Sphaerotheca fuliginea): 80 percent control
- MTA (Two-Spotted Spider Mite): 0%

SMILES: O=C1CN(Cc2ccc(Cl)s2)C(c2ccc(Cl)cc2)=NN1Cc1ccc(Cl)s1 [Compound 63]
- MTA (Two-Spotted Spider Mite): 0%

SMILES: CCCCCCn1nc(-c2ccc(Cl)cc2)ncc1=O [Compound 262]
- Rice Blast (RB) protectant fungicide data, percent control (Pyricularia oryzae): 85 percent control
- Cucumber Powdery Mildew (CPM) protectant fungicide data, percent control (Sphaerotheca fuliginea): 80 percent control
- MTA (Two-Spotted Spider Mite): 0%

SMILES: Cc1cccc(N2N=C(c3cccc(Cl)c3)NCC2=O)c1 [Compound 112]
- Rice Blast (RB) protectant fungicide data, percent control (Pyricularia oryzae): 85 percent control
- Cucumber Powdery Mildew (CPM) protectant fungicide data, percent control (Sphaerotheca fuliginea): 80 percent control
- MTA (Two-Spotted Spider Mite): 0%

SMILES: O=C1CNC(c2ccc(Cl)c(Cl)c2)=NN1Cc1ccccc1 [Compound 103]
- Rice Blast (RB) protectant fungicide data, percent control (Pyricularia oryzae): 90 percent control
- Cucumber Powdery Mildew (CPM) protectant fungicide data, percent control (Sphaerotheca fuliginea): 0 percent control
- MTA (Two-Spotted Spider Mite): 23%

SMILES: CCCCn1nc(-c2ccc(Cl)c(Cl)c2)ncc1=O [Compound 270]
- Rice Blast (RB) protectant fungicide data, percent control (Pyricularia oryzae): 100 percent control
- Cucumber Powdery Mildew (CPM) protectant fungicide data, percent control (Sphaerotheca fuliginea): 95 percent control
- MTA (Two-Spotted Spider Mite): 0%

SMILES: CCCCCCCCn1nc(-c2ccc(Cl)cc2)ncc1=O [Compound 259]
- Rice Blast (RB) protectant fungicide data, percent control (Pyricularia oryzae): 90 percent control
- Cucumber Powdery Mildew (CPM) protectant fungicide data, percent control (Sphaerotheca fuliginea): 75 percent control
- MTA (Two-Spotted Spider Mite): 0%

SMILES: O=C1CNC(c2cc3ccccc3s2)=NN1CC(F)(F)F [Compound 163]
- Rice Blast (RB) protectant fungicide data, percent control (Pyricularia oryzae): 90 percent control
- Cucumber Powdery Mildew (CPM) protectant fungicide data, percent control (Sphaerotheca fuliginea): 0 percent control
- MTA (Two-Spotted Spider Mite): 100%

SMILES: C=CCOC(=O)N1CC(=O)N(CCCC)N=C1c1cc(Cl)cc(Cl)c1 [Compound 135]
- Rice Blast (RB) protectant fungicide data, percent control (Pyricularia oryzae): 90 percent control
- Cucumber Powdery Mildew (CPM) protectant fungicide data, percent control (Sphaerotheca fuliginea): 50 percent control
- MTA (Two-Spotted Spider Mite): 43%

SMILES: COC(=O)C(=O)N1CC(=O)N(CC(F)(F)F)N=C1c1cc(Cl)cc(Cl)c1 [Compound 123]
- Rice Blast (RB) protectant fungicide data, percent control (Pyricularia oryzae): 95 percent control
- Cucumber Powdery Mildew (CPM) protectant fungicide data, percent control (Sphaerotheca fuliginea): 50 percent control
- MTA (Two-Spotted Spider Mite): 0%

SMILES: CCCCC1=NN(c2ccc(Cl)cc2)C(=O)CN1 [Compound 204]
- Rice Blast (RB) protectant fungicide data, percent control (Pyricularia oryzae): 75 percent control
- Cucumber Powdery Mildew (CPM) protectant fungicide data, percent control (Sphaerotheca fuliginea): 85 percent control

SMILES: CCCCCn1nc(-c2cc(Cl)c(C)c(Cl)c2)ncc1=O [Compound 257]
- Rice Blast (RB) protectant fungicide data, percent control (Pyricularia oryzae): 95 percent control
- Cucumber Powdery Mildew (CPM) protectant fungicide data, percent control (Sphaerotheca fuliginea): 50 percent control

SMILES: CCCCN1N=C(c2ccc(F)c(Br)c2)NCC1=O [Compound 207]
- Rice Blast (RB) protectant fungicide data, percent control (Pyricularia oryzae): 100 percent control
- Cucumber Powdery Mildew (CPM) protectant fungicide data, percent control (Sphaerotheca fuliginea): 85 percent control

SMILES: CCCCN1N=C(C)NC(c2cccc(C)c2)C1=O (stereo not drawn) [Compound 77]
- Rice Blast (RB) protectant fungicide data, percent control (Pyricularia oryzae): 0 percent control
- Cucumber Powdery Mildew (CPM) protectant fungicide data, percent control (Sphaerotheca fuliginea): 50 percent control

SMILES: O=C1CN(CC=CCl)C(c2cc(Cl)cc(Cl)c2)=NN1CC=CCl (mixture of isomers) [Compound 66]
- Rice Blast (RB) protectant fungicide data, percent control (Pyricularia oryzae): 50 percent control
- Cucumber Powdery Mildew (CPM) protectant fungicide data, percent control (Sphaerotheca fuliginea): 0 percent control

SMILES: CCCCN1N=C(c2cc3ccccc3s2)NCC1=O [Compound 162]
- Rice Blast (RB) protectant fungicide data, percent control (Pyricularia oryzae): 95 percent control
- Cucumber Powdery Mildew (CPM) protectant fungicide data, percent control (Sphaerotheca fuliginea): 50 percent control

SMILES: CCCCCN1N=C2C=CC(c3ccc(Cl)cc3)=NN2CC1=O [Compound 24, 2-Pentyl-7-(4-chlorophenyl)-pyridazino[6,1-c][1,2,4]triazin-3(4H)one]
- pest or weed control at 300 g/ha (Pyricularia oryzae): 0%
- pest or weed control at 300 g/ha (Sphaerotheca fuliginea): 50%

SMILES: CCCCN1N=C(c2ccc(Cl)c(Cl)c2)N(Cc2ccc(OC)cc2)CC1=O [Compound 199]
- Rice Blast (RB) protectant fungicide data, percent control (Pyricularia oryzae): 90 percent control
- Cucumber Powdery Mildew (CPM) protectant fungicide data, percent control (Sphaerotheca fuliginea): 0 percent control

SMILES: COC(=O)SN1CC(=O)N(CC(F)(F)F)N=C1c1cc(Cl)cc(Cl)c1 [Compound 14, 1-(2,2,2-trifluoroethyl)-3-(3,5-dichlorophenyl)-4-(methoxycarbonylthio)-4,5-dihydro-1,2,4-triazin-6-one]
- pest or weed control at 300 g/ha (Pyricularia oryzae): 100%
- pest or weed control at 300 g/ha (Sphaerotheca fuliginea): 85%

SMILES: CCCCN1N=C(c2ccc(Cl)c(Cl)c2)N(Cc2ccc(OC)c(OC)c2)CC1=O [Compound 200]
- Rice Blast (RB) protectant fungicide data, percent control (Pyricularia oryzae): 85 percent control
- Cucumber Powdery Mildew (CPM) protectant fungicide data, percent control (Sphaerotheca fuliginea): 0 percent control

SMILES: CCCCn1nc(-c2ccc(OC)cc2)ncc1=O [Compound 244]
- Rice Blast (RB) protectant fungicide data, percent control (Pyricularia oryzae): 100 percent control
- Cucumber Powdery Mildew (CPM) protectant fungicide data, percent control (Sphaerotheca fuliginea): 50 percent control

SMILES: COC(=O)N1CC(=O)N(CC(F)(F)F)N=C1c1cc(Cl)cc(Cl)c1 [Compound 71]
- Rice Blast (RB) protectant fungicide data, percent control (Pyricularia oryzae): 75 percent control
- Cucumber Powdery Mildew (CPM) protectant fungicide data, percent control (Sphaerotheca fuliginea): 50 percent control

SMILES: COC1NC(c2cc(Cl)cc(Cl)c2)=NN(CC(F)(F)F)C1=O (stereo not drawn) [Compound 18, 1-(2,2,2-Trifluoroethyl)-3-(3,5-dichlorophenyl)-5-methoxy-4,5-dihydro-1,2,4-triazin-6-one]
- pest or weed control at 300 g/ha (Pyricularia oryzae): 95%
- pest or weed control at 300 g/ha (Sphaerotheca fuliginea): 75%

SMILES: C=CC(=O)N1CC(=O)N(CCCC)N=C1c1cc(Cl)cc(Cl)c1 [Compound 138]
- Rice Blast (RB) protectant fungicide data, percent control (Pyricularia oryzae): 99 percent control
- Cucumber Powdery Mildew (CPM) protectant fungicide data, percent control (Sphaerotheca fuliginea): 0 percent control

SMILES: CC=CC(=O)N1CC(=O)N(CCCC)N=C1c1ccc(Cl)c(Cl)c1 [Compound 177]
- Rice Blast (RB) protectant fungicide data, percent control (Pyricularia oryzae): 95 percent control
- Cucumber Powdery Mildew (CPM) protectant fungicide data, percent control (Sphaerotheca fuliginea): 50 percent control

SMILES: C=CCOC(=O)N1CC(=O)N(CCCC)N=C1c1ccc(Cl)c(Cl)c1 [Compound 170]
- Rice Blast (RB) protectant fungicide data, percent control (Pyricularia oryzae): 90 percent control
- Cucumber Powdery Mildew (CPM) protectant fungicide data, percent control (Sphaerotheca fuliginea): 75 percent control

— patent publication US7494996B2 (priority 2000, dated 2009)
